In paper PMC4973094, “Anti-cholinesterases and memory improving effects of Vietnamese Xylia xylocarpa” (Chemistry Central Journal, 2016):
Structures can show the parent of a compound that is named as a salt. Where two headings read alike, the source gives them in different places.

Key:
[1] = target: T1, butyrylcholinesterase (BChE) (EC 3.1.1.8) (Homo sapiens, UniProt P06276); experiment: BChE inhibition assay (modified Ellman's method); assay type: biochemical; details: average of 3 replicates ± SD; substrate butyrylthiocholine, pH 8.0
T1 construct: purchased Sigma-Aldrich Pte Ltd (Nucleos, Singapore)
T1 sequence (P06276 29-602, species assumed): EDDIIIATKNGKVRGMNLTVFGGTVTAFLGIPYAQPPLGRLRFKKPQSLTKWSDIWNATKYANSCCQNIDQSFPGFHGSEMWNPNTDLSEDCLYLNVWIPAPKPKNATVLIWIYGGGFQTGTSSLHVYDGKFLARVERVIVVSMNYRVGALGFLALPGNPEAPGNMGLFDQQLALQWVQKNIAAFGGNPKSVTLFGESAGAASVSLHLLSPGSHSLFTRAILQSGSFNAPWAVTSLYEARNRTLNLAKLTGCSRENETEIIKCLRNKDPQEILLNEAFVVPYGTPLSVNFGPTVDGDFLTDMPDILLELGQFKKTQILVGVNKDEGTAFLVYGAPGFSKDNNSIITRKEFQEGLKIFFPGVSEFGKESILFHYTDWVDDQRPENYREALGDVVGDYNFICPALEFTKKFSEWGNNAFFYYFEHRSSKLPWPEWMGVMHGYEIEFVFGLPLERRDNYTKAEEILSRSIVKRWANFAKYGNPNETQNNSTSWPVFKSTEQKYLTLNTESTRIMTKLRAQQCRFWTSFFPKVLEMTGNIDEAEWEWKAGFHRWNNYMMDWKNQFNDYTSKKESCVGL
Protocol: (§1) Male Swiss mice (age, 8 weeks; weight, 25–27 g) were purchased from Military Medical University (Hanoi, Vietnam) and housed in a regulated environment (21 ± 2 °C, 12 h light/dark cycle, light period starting at 7 AM) with free access to food and water. Acetylcholinesterase (AChE) (EC 3.1.1.7), butyrylcholinesterase (BChE) (EC 3.1.1.8) and scopolamine hydrobromide (>98 %) were obtained from Sigma-Aldrich Pte Ltd (Nucleos, Singapore). […] Other chemicals were of the highest grade available.
(§2) The inhibitory activities of the ChEs were measured using a modified Ellman’s method. Acetylthiocholine and butyrylthiocholine were used as substrates to examine the inhibitory effect of sample on the AChE and BChE action, respectively. The reaction mixture contained: 140 μL of sodium phosphate buffer (pH 8.0); 20 μL of tested sample solution; and 20 µL of either AChE or BChE solution (5 units/mL), which were mixed and incubated at room temperature for 15 min. The reactions were initiated by the addition of 10 µL of dithiobisnitrobenzoate (DTNB) and 10 μL of either acetylthiocholine or butyrylthiocholine, respectively. The hydrolysis of AChE or BChE was monitored at 412 nm based on the formation of yellow 5-thio-2-nitrobenzoate anion from the reaction of DTNB with thiocholine, which was released by enzymatic hydrolysis of either AChE or BChE. […] The reaction was performed in triplicate and recorded in 96-well microplates using a microplate reader (VersaMax ELISA, USA). Percent inhibition was calculated from (1–S/E) × 100, where E and S were the enzyme activities […] the tested sample, respectively.

[2] = target: T2, Acetylcholinesterase (AChE) (EC 3.1.1.7) (Homo sapiens, UniProt P22303); experiment: AChE inhibition assay (modified Ellman's method); assay type: biochemical
T2 construct: purchased Sigma-Aldrich Pte Ltd (Nucleos, Singapore)
T2 sequence (P22303 32-614): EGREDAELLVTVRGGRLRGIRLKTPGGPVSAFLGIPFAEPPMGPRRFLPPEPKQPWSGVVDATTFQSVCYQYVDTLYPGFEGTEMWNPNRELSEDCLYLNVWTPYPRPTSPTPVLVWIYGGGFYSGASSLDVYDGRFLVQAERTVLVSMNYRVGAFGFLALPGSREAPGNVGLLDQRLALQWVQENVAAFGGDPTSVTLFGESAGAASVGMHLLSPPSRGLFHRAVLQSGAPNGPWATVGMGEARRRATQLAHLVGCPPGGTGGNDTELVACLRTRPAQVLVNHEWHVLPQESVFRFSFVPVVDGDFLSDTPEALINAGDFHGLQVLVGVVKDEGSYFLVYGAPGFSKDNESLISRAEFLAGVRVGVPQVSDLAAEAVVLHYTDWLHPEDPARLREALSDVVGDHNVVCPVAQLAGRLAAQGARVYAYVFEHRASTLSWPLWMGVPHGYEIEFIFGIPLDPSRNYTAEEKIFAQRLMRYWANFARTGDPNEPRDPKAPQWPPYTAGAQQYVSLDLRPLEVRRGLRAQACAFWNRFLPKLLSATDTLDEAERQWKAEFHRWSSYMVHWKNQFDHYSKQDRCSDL
Protocol: as §1, §2

[3] = tested on: scopolamine-induced memory deficit in mice; experiment: Object recognition test, scopolamine-induced recognition impairment; assay type: in vivo, male Swiss mice; details: scopolamine 1.5 mg/kg i.p. alone
[4] = tested on: scopolamine-induced memory deficit in mice; experiment: Y-maze test, scopolamine-induced memory impairment; assay type: in vivo, male Swiss mice; details: scopolamine 1.5 mg/kg i.p. alone; versus vehicle-treated control group, P < 0.001
[5] = tested on: scopolamine-induced memory deficit in mice; experiment: Morris water maze test, scopolamine-induced memory dysfunction; assay type: in vivo, male Swiss mice; details: scopolamine 1.5 mg/kg i.p. alone, versus vehicle-treated controls
[6] = days 3 to 7, P < 0.01 and P < 0.001

Row | Structure (SMILES) | IC50 [1] [µM] | IC50 [2] [µM] | other results
1 | CC1(C)OC(=O)C23CCC1C2CCC1(C)C3CCC2C3(C)CCC(O)C(C)(C)C3CCC21C (stereo not drawn) [Compound 1, (3β)-hopan-3-ol-28,22-olide] | > 100 | 79.5 ± 1.1 | –
2 | C=C(C)[C@@H]1CC[C@]2(C)CC[C@]3(C)[C@H](CC[C@@H]4[C@@]5(C)CC[C@H](O)C(C)(C)[C@@H]5CC[C@]43C)[C@@H]12 [Compound 2, lupeol] | > 100 | 75.7 ± 3.1 | –
3 | C=C(C)[C@@H]1CC[C@]2(O)CC[C@]3(C)C(CCC4[C@@]5(C)CC[C@H](O)C(C)(C)C5CC[C@]43C)C12 (stereo partly drawn) [Compound 3, 28-norlup-20(29)-ene-3β,17β-diol] | > 100 | > 100 | –
4 | C=C(C)[C@@H]1CC[C@]2(CO)CC[C@]3(C)[C@H](CC[C@@H]4[C@@]5(C)CC[C@H](O)C(C)(C)[C@@H]5CC[C@]43C)[C@@H]12 [Compound 4, betulin] | – | 93.4 ± 2.2 | –
5 | C=C(C)[C@@H]1CC[C@]2(OO)CC[C@]3(C)C(CCC4[C@@]5(C)CC[C@H](O)C(C)(C)C5CC[C@]43C)C12 (stereo partly drawn) [Compound 5, 28-norlup-20(29)-ene-3β-hydroxy-17β-hydroperoxide] | > 100 | 83.9 ± 0.6 | –
6 | C=C(C)[C@@H]1CC[C@]2(C(=O)O)CC[C@]3(C)[C@H](CC[C@@H]4[C@@]5(C)CC[C@H](O)C(C)(C)[C@@H]5CC[C@]43C)[C@@H]12 [Compound 7, betulinic acid] | – | 62 ± 2.2 | –
7 | C=C(C)[C@@H]1CC[C@]2(C(=O)O)CC[C@]3(C)C(CCC4[C@@]5(C)CCC(=O)C(C)(C)C5CC[C@]43C)C12 (some centres unmarked) [Compound 8, betulonic acid] | > 100 | – | IC50 ([2]; read-out: IC50 AChE, average of 3 replicates ± SD, substrate acetylthiocholine, pH 8.0): 94.6 ± 1.5 µM
8 | CC1(C)CC[C@]23CC[C@]4(C)C(CCC5[C@@]6(C)CC[C@H](O)C(C)(C)C6CC[C@]54C)C2[C@H]1OC3=O (stereo partly drawn) [Compound 10, 3β-hydroxy-18α-olean-28,19β-olide] | – | > 100 | –
9 | CC1(C)CC[C@]23CC[C@]4(C)C(CCC5[C@@]6(C)CC[C@H](OC=O)C(C)(C)C6CC[C@]54C)C2[C@H]1OC3=O (stereo partly drawn) [Compound 11, 3β-formyloxy-l8α-oleanano-28,19β-lactone] | > 100 | 86.5 ± 0.6 | –
10 | Cc1cc(O)c2c(c1)C(=O)c1cccc(O)c1C2=O [Compound 12, chrysophanol] | > 100 | 77.3 ± 0.8 | –
11 | COC1=CC(=O)C=C(OC)C1=O [Compound 13, 2,6-dimethoxyl-p-benzoquinone] | 42.7 ± 7.6 | 54.4 ± 3.4 | –
12 | COc1cc(/C=C/C(=O)O)ccc1O [Compound 14, ferulic acid] | > 100 | > 100 | –
13 | COC(=O)/C=C/c1ccc(O)c(OC)c1 [Compound 15, methyl ferulate] | – | > 100 | –
14 | COC(=O)C(Cc1ccc(O)cc1)C(=O)OC [Compound 16, methyl 3-(4-hydroxyphenyl)-2-methoxycarbonylpropionate] | > 100 | > 100 | –
15 | O=C(O)c1ccc(O)c(O)c1 [Compound 17, protocatechuic acid] | – | > 100 | –
16 | COc1cc(C(=O)O)ccc1O [Compound 18, vanillic acid] | > 100 | > 100 | –
17 | COc1cc(C=O)ccc1O [Compound 19, vanillin] | – | > 100 | –
18 | COC(=O)c1cc(O)c(O)c(O)c1 [Compound 20, methyl gallate] | – | > 100 | –
19 | COc1cc(C(=O)O)cc(OC)c1O [Compound 21, syringic acid] | – | > 100 | –
20 | CN1[C@@H]2C[C@@H](OC(=O)[C@H](CO)c3ccccc3)C[C@H]1[C@@H]1O[C@@H]12 [scopolamine, scopolamine hydrobromide] | – | – | Time exploring new versus familiar object, test phase, object recognition test [3]: no total time difference between familiar and new objects; Spontaneous alternation (%) in Y-maze [4]: significantly lower; Time in the target quadrant, probe trial day 8, Morris water maze ([5]; P < 0.05): significantly reduced; Escape latencies, training trials, Morris water maze [5, 6]: longer; Swimming distances, training trials, Morris water maze [5, 6]: longer
